Source: article PMC12701685, “Support Vector Machine Identification of Small Molecule Binders to an Understudied Allosteric Site of SARS‐CoV‐2 Mpro for Next‐Generation PROTAC‐Based Therapeutics” (Archiv Der Pharmazie, 2025)
Like-named read-outs stand apart in the source and are kept apart here.

Key:
[1] = system: SARS‐CoV‐2 replication in Vero E6 cells; details: cited from earlier work
SARS‐CoV‐2 Mpro [2] = target: T1, SARS‐CoV‐2 Mpro (Severe acute respiratory syndrome coronavirus 2, UniProt P0DTD1); assay: Microscale thermophoresis (MST) binding check and binding affinity; details: for RA (Response Amplitude): MST binding affinity experiment, RA ≥ 1.5 indicative of binding; for Kd: MST, labeled Mpro 35 nM, 16 1:1 serial dilutions, two independent experiments, read-out: K d ± K d confidence
SARS‐CoV‐2 Mpro [3] = target: T1, SARS‐CoV‐2 Mpro; assay: FRET peptide substrate enzymatic assay; type: biochemical; details: compound 20 µM; for remaining activity at 20 µM: enzyme 75 nM, substrate 25 µM, read-out: Residual activity (%)
Method: The three compounds identified as binders in the MST assay were tested for their inhibitory properties against SARS‐CoV‐2 Mpro at a 20 µM concentration (see Section 4 for details).
Inhibitory activities of the compounds against SARS‐CoV‐2 Mpro were determined as described previously by cleavage of a fluorescence resonance energy transfer (FRET) peptide substrate (Dabcyl‐[…]‐Edans), purchased from Genescript (New Jersey, USA).
Fluorescence measurements were carried out in white flat‐bottom 96‐well plates (Greiner Bio‐One, Kremsmünster, Upper Austria) using a Tecan Spark 10M plate reader (Tecan Group Ltd., Männedorf, Switzerland). Each well contained a final volume of 200 µL, consisting of 180 µL assay buffer (20 mM TRIS‐HCl pH 7.5, 20 mM NaCl, 0.1 mM EDTA, 1 mM DTT), 5 µL enzyme solution (final concentration 75 nM), 10 µL inhibitor in DMSO (final concentration 20 µM) or pure DMSO as a negative control, and 5 µL substrate solution in DMSO (final concentration 25 µM). The reaction was monitored for 10 min at 25°C, with fluorescence readings taken at 30‐s intervals. The substrate was excited at 335 nm, and fluorescence emission was recorded at 493 nm. The remaining enzymatic activity was determined by comparing the substrate hydrolysis rate in reaction mixtures containing the inhibitors to that of the DMSO control. Only the first 5 min of the fluorescence curves (Supporting Information S1: Figure S3) were used for the calculation to obtain the linear part.

SARS‐CoV‐2 Mpro [4] = target: T1, SARS‐CoV‐2 Mpro; details: non‐covalent inhibitors; cited from earlier work
SARS-CoV-1 = details: cited from earlier work
[5] = system: virus‐infected VeroE6 cells; details: cytopathic effect (CPE) inhibition; cited from earlier work
[6] = system: virus‐infected VeroE6 cells; details: plaque reduction; cited from earlier work
infected cells = details: cited from earlier work

Compound: O=C(NC1CCNCC1)c1n[nH]cc1NC(=O)c1c(Cl)cccc1Cl [AT7519, N‐(4‐piperidinyl)‐4‐(2,6‐dichlorobenzoylamino)‐1H‐ Pyrazole‐3‐Carboxamide]
- EC50 [1]: 25.2 µM

Compound: Cc1ccc(C(=O)NCCCNC(=O)c2ccccn2)cc1C [compound 7]
- RA (Response Amplitude) (SARS‐CoV‐2 Mpro [2]): 3.4
- Kd (SARS‐CoV‐2 Mpro [2]): 2.8 ± 0.9 µM
- Effect on enzyme activity (in words) (SARS‐CoV‐2 Mpro [3]): no effect on the catalytic activity
- remaining activity at 20 µM (SARS‐CoV‐2 Mpro [3]): 105%

Compound: CCOc1cccc(-c2nn3c(-c4cccnc4)nnc3s2)c1 [compound 8]
- RA (Response Amplitude) (SARS‐CoV‐2 Mpro [2]): 4.7
- Kd (SARS‐CoV‐2 Mpro [2]): 23.9 ± 7.4 µM
- Effect on enzyme activity (in words) (SARS‐CoV‐2 Mpro [3]): no effect on the catalytic activity
- remaining activity at 20 µM (SARS‐CoV‐2 Mpro [3]): 101%

Compound: Cc1cc2ncn(S(=O)(=O)c3ccc(S(N)(=O)=O)cc3)c2cc1C [compound 9]
- RA (Response Amplitude) (SARS‐CoV‐2 Mpro [2]): 2.7
- Kd (SARS‐CoV‐2 Mpro [2]): 39 ± 23.4 µM
- Effect on enzyme activity (in words) (SARS‐CoV‐2 Mpro [3]): no effect on the catalytic activity
- remaining activity at 20 µM (SARS‐CoV‐2 Mpro [3]): 106%

Compound: O=C(c1c[nH]c(=O)[nH]c1=O)N1CCN(c2ccc(Cl)c(Cl)c2)CC1 [compound 23]
- IC50 (SARS‐CoV‐2 Mpro [4]): 5.1 ± 0.63 µM

Compound: CCC(C)(C)NC(=O)[C@@H](c1ccn(C)c1)N(C(=O)Cn1nnc2ccccc21)c1ccc(NC(C)=O)cc1 [compound 42]
- IC50 (SARS-CoV-1): 6.2 µM

Compound: O=C(Cn1nnc2ccccc21)N(Cc1cccc(Cl)c1)c1ccc(-c2c[nH]cn2)cc1 [compound 47]
- EC50 [5]: 0.5 µM
- EC50 [6]: 0.56 µM

Compound: O=C(NCc1cccs1)[C@@H]1CN(C(=O)c2cccnc2)CCN1c1ccc(Cl)c(Cl)c1 [compound 51]
- IC50 (SARS‐CoV‐2 Mpro [4]): ~0.4 µM
- EC50 (infected cells): ~1.1 µM
